Source: publication PMC2719696, “Kinetics and Cellular Site of Glycolipid Loading Control the Outcome of Natural Killer T Cell Activation” (Immunity, 2009)

Assays:
murine iNKT cell TCRs = experiment: Equilibrium binding of glycolipid-loaded mCD1d tetramers to murine iNKT cells; set-up: species or system mouse; settings: tetramer staining of murine iNKT cells
Method: The interactions of iNKT cell TCRs with CD1d molecules loaded with αGalCer analogs were analyzed with fluorescent murine and human CD1d tetramers. […] Equilibrium binding studies for measuring TCR avidities were carried out by incubation of human or murine iNKT cells with varying concentrations of αGalCer-analog-loaded tetramers and determining relative levels of cell-associated fluorescence ([Stanic et al., 2003; Yu et al., 2005]).
Figure 2 Characterization of iNKT Cell TCR Interactions with αGalCer Analogs (A) Flow cytometry analysis of human and murine iNKT cells with αGalCer analog-CD1d tetramers. In the top row, murine iNKT cells from C57BL/6 splenocytes were costained with αGalCer analog-loaded or unloaded mCD1d tetramers conjugated with PE (x axis) and αGalCer-C26:0-loaded-mCD1d tetramers conjugated with APC (y axis). In the bottom row, human PBMCs were similarly costained with human glycolipid-loaded CD1d tetramers. (B) Binding avidity of glycolipid-mCD1d complexes to murine iNKT cell TCRs. Histograms at left show tetramer staining of NK1.1^+ CD3^+ T cells in C57BL/6 splenocytes with glycolipid-loaded tetramers at 20 nM. […]
Recombinant CD1d proteins were produced and assembled into tetramers for staining as previously described ([Forestier et al., 2007]). […] All samples were analyzed with the FACSCalibur flow cytometer (BD Biosciences).

mCD1d = target: T1, mCD1d (Mus musculus, UniProt P11609); experiment: mAb L363 staining of αGalCer-mCD1d complexes on cultured mouse splenocytes; assay type: cell-based; settings: 100 nM glycolipid, 1 hr or 19 hr
T1 construct: host or cells: JAWS II (C57BL/6.Trp53-/- derived dendritic cell line)
T1 sequence (P11609 22-336): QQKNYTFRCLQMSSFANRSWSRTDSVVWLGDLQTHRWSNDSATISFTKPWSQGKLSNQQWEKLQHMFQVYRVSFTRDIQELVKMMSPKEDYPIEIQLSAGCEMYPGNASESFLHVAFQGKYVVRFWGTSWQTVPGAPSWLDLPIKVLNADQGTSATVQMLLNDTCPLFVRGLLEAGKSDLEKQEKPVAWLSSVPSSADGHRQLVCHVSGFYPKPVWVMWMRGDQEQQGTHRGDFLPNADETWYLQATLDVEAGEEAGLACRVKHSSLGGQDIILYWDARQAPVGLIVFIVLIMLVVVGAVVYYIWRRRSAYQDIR
T1 sequence (P01887 21-119 partner): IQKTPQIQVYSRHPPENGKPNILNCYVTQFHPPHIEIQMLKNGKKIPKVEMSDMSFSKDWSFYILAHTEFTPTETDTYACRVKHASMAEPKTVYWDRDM
Method: We studied this possibility directly by using a monoclonal antibody (L363) that specifically recognizes complexes of αGalCer bound to mCD1d ([Yu et al., 2007]). Mouse splenocytes were cultured with either αGalCer-C26:0 or representative Th2 cell-type cytokine-biasing analogs, and L363 staining was assessed on various cell types (Figure 3A). […] This was investigated further with more detailed kinetic studies in which immortalized mouse DC line JAWS II was cultured with each glycolipid and assessed for L363 surface staining at 0.5, 4, and 18 hr (Figure 3B). […]
Figure 3 Direct Analysis of Presentation of αGalCer Analogs with Complex-Specific mAb Staining (A) Mouse splenocytes cultured with either vehicle only (0.02% DMSO) or with the indicated αGalCer analogs (100 nM) were harvested after 1 hr or 19 hr of incubation and stained with mAb L363 or anti-CD1d mAb 1B1 and with mAbs specific for CD11c, CD19, and F4/80 (Figure S4). […] (B) JAWS II cells were incubated with glycolipids (250 nM) for various times ranging from 0.5–18 hr as indicated, stained with mAb L363, and analyzed by flow cytometry. […]
Recombinant CD1d proteins were produced and assembled into tetramers for staining as previously described ([Forestier et al., 2007]). […] All samples were analyzed with the FACSCalibur flow cytometer (BD Biosciences). […]

Row | SMILES | TCR avidity of glycolipid-mCD1d complexes (murine iNKT cell TCRs) | L363 staining of splenocyte populations (mCD1d)
1 | CCCCCCCCCCCCCCCCCCCCCCCC(=O)NC(COC1OC(CO)C(O)C(O)C1O)C(O)C(O)CCCCC (centres unmarked) [OCH] | weak binding | –
2 | CCCCCCCCCCCCCCC(O)C(O)C(COC1OC(CO)C(O)C(O)C1O)NC(=O)CCCCCCCCC (centres unmarked) [αGalCer-C10:0] | – | extremely early appearance of L363 staining
